Results: patent publication US20100184677A1, “USE OF THE HUMAN PANCREATIC POLYPEPTIDE AS A THERAPEUTIC AGENT” (priority 2007, published 2010)

Columns and labels:
HepG2-2.2.15 cells = assay: Cell viability (dye uptake assay) in HepG2-2.2.15 cells; conditions: HepG2-2.2.15 cells; test peptide 10 micrograms per ml; dye uptake assay (% cell control)
MRC-5 cells = conditions: human, 6 days
[1] = Cell viability (dye uptake assay) in HepG2-2.2.15 cells; conditions: human
in vitro [2] = conditions: human, MRC-5 cells (embryonal lung fibroblasts)
Streptococcus pneumoniae = type: cell-based; conditions: 5 micrograms per ml
MRSA = conditions: 5 micrograms per ml
Pseudomonas aeruginosa = type: cell-based; conditions: 5 micrograms per ml
in vitro [3] = conditions: human

Nc1ccn([C@@H]2CS[C@H](CO)O2)c(=O)n1 [3TC, Lamivudine, reference compound]
% Cell Viability (HepG2-2.2.15 cells): 95.8%

Nc1nc(O)c2ncn(COC(CO)CO)c2n1 [Ganciclovir]
% Cell Viability (MRC-5 cells): 100%

CC[C@H](C)[C@H](NC(=O)[C@H](Cc1ccc(O)cc1)NC(=O)[C@H](CCCNC(=N)N)NC(=O)[C@H](CCCNC(=N)N)NC(=O)[C@H](CC(C)C)NC(=O)[C@H](CC(=O)O)NC(=O)[C@H](C)NC(=O)[C@H](C)NC(=O)[C@H](Cc1ccc(O)cc1)NC(=O)[C@H](CCC(N)=O)NC(=O)[C@H](C)NC(=O)[C@H](CCSC)NC(=O)[C@H](CCC(N)=O)NC(=O)[C@H](CCC(=O)O)NC(=O)[C@@H]1CCCN1C(=O)[C@@H](NC(=O)[C@H](C)NC(=O)[C@H](CC(N)=O)NC(=O)[C@H](CC(=O)O)NC(=O)CNC(=O)[C@@H]1CCCN1C(=O)[C@H](Cc1ccc(O)cc1)NC(=O)[C@@H](NC(=O)[C@@H]1CCCN1C(=O)[C@H](CCC(=O)O)NC(=O)[C@H](CC(C)C)NC(=O)[C@@H]1CCCN1C(=O)[C@H](C)N)C(C)C)[C@@H](C)O)C(=O)N[C@@H](CC(N)=O)C(=O)N[C@@H](CCSC)C(=O)N[C@@H](CC(C)C)C(=O)N[C@H](C(=O)N[C@@H](CCCNC(=N)N)C(=O)N1CCC[C@H]1C(=O)N[C@@H](CCCNC(=N)N)C(=O)N[C@@H](Cc1ccc(O)cc1)C(N)=O)[C@@H](C)O [Pancreatic polypeptide]
viability at 144 h, 10 micrograms per ml [1]: 92.5% | viability at 144 h (in vitro [2]): 100% | % inhibition (Streptococcus pneumoniae): 0.0% | % inhibition (MRSA): 0.0% | % inhibition (Pseudomonas aeruginosa): 0.0% | viability at 10 micrograms per ml (in vitro [3]): 90.2%
